Results published in PMC5063506, “A Novel Class of Small Molecule Agonists with Preference for Human over Mouse TLR4 Activation” (PLoS ONE, 2016).
≈ marks a conversion by molar mass, not a printed value.

Assays:
[1] = system: guinea pig TLR4, MD2, and CD14; test: Guinea-pig TLR4 reporter agonist assay (HEK293 SEAP, DDAO phosphate); type: cell-based; settings: 10^-5 to 10^-10 M, 20 h, % of maximum 1 μM LPS signal
Text: Fragments of guinea pig TLR4 were identified by searching the Ensembl genome browser database (http://www.ensembl.org/index.html) using the BLAST algorithm and discontiguous mega blast of the NCBI trace archives (http://www.ncbi.nlm.nih.gov/blast/tracemb.shtml) using the DNA sequence of human TLR4 Isotype A as the search string. Guinea pig CD14 was assembled in silico from fragments identified in the NCBI trace archives using human CD14 as the search string (76% similar/72% identical). Fragments corresponding to guinea pig MD2 were identified by searching the Ensembl genome browser database and NCBI trace archives with human MD2 as the search string (72% similar/68% identical). Sequence information was used to design primers for PCR amplification of full length coding sequences from guinea pig spleen cDNA. Sequences for guinea pig MD2 and CD14 were as predicted in silico. gpTLR4 was cloned into the expression vector pUNO (Invivogen). gpMD2 and gpCD14 were cloned together into pDUO (Invivogen) for co-expression. gpMD2 was also cloned into pUNO for transient co-expression with gpTLR4. A stable mixed population expressing gpTLR4 /CD14/MD2 was made by transfecting the gpTLR4/pUNO and gpMD2 + gpCD14/pDUO constructs into a HEK293 cell-line containing a stably integrated pNiFty2-SEAP reporter plasmid (Invivogen) using Fugene-6 (Roche). […]
SEAP detection assay was performed as previous described by. […] Plates were read using the Envision plate reader excitation λex 620nm, emission λem 665nm. Data was analyzed as % maximum 1 μM Ultrapure (0111:B4) LPS activation signal (Invivogen).
Fig 5 Ugi compounds activate guinea pig TLR4/MD2-HEK transfectants. […] The plates were developed with the addition of DDAO phosphate as substrate and then read on a plate reader at 620 nm. Data were analyzed as % of the maximum 1 μM Ultrapure (0111:B4) LPS activation signal.

[2] = Solubility by dissolution of solid samples in buffer; type: physicochemical; settings: aqueous buffer, thermodynamic from solid; solid samples in buffer at pH 7.4
Text: Fig 2 Optimization stages of Ugi products as TLR4 agonists. *Human TLR-4 NFκB SEAP reporter assays; protocol as described in Methods. Data are reported as pEC50, or negative log of the EC50 values. **Clint rh / hm represents intrinsic clearance in presence of rat hepatocytes (μL/min/10^6 cells) and human microsomes (μL/min/mg protein). […] Thus a drug molecule with LogD >4 might be considered to be very lipophilic and therefore more likely to suffer from rapid metabolic turnover, poor solubility and receptor promiscuity; whereas a LogD range of 1–3 is more likely to be associated with optimal physicochemical and drug-like properties. ^††Solubility was measured by dissolution of solid samples in buffer at pH 7.4.

cytochrome P450 enzymes = test: Inhibition of cytochrome P450 enzymes (unpublished data); type: in vitro ADME; settings: compared with earlier-stage, more lipophilic Ugi compounds

SMILES	potency on gpTLR4/gpMD2/gpCD14 HEK293 transfectants [1]	solubility [2]	inhibition of one or more cytochrome P450 enzymes (cytochrome P450 enzymes)
CC(C)(C)c1ccc(N(C(=O)c2cc(-c3ccccc3)n(-c3ccccc3)n2)C(C(=O)NC2CCCC2)c2ccc(CC(=O)O)cc2)cc1 (centres unmarked) [AZ902]	less active but still positive	–	–
Cc1ccc(N(C(=O)c2cc(-c3ccccc3)n(-c3ccccc3)n2)C(C(=O)NC2CCCC2)c2ccc(CC(=O)O)cc2)cc1Cl (centres unmarked) [AZ161]	potency comparable to LPS	–	–
O=C(O)Cc1ccc(C(C(=O)NC2CCCC2)N(C(=O)c2cc(-c3ccccc3)n(-c3ccccc3)n2)c2ccc3c(c2)CCC3)cc1 (centres unmarked) [AZ617]	potency comparable to LPS	129 µM (≈ 82.4 µg/mL)	abolished
